Results from patent publication US8846935B2, “Indazoles” (GlaxoSmithKline LLC, priority 2010, dated 2014).

Biological target: T1, EZH2 within the PRC2 complex (Homo sapiens, UniProt Q15910)
T1 construct: FLAG; made in house; host or cells: Sf9 cells
Experiment: EZH2 methyltransferase scintillation proximity assay (SPA)
Assay type: biochemical
Details: methyltransferase activity of EZH2 in human PRC2 complex, 3H-SAM, HeLa mononucleosomes
Experimental: Compounds contained herein were evaluated for their ability to inhibit the methyltransferase activity of EZH2 within the PRC2 complex. Human PRC2 complex was prepared by co-expressing each of the 5 member proteins (FLAG-EZH2, EED, SUZ12, RbAp48, AEBP2) in Sf9 cells followed by co-purification. Enzyme activity was measured in a scintillation proximity assay (SPA) where a tritiated methyl group is transferred from 3H-SAM to a lysine residue on Histone H3 of a mononucleosome, purified from HeLa cells. Mononucleosomes were captured on SPA beads and the resulting signal is read on a ViewLux plate reader.
Part A. Compound Preparation
• 1. Prepare 10 mM stock of compounds from solid in 100% DMSO. • 2. Set up an 11-point serial dilution (1:3 dilution, top concentration 10 mM) in 100% DMSO for each test compound in a 384 well plate leaving columns 6 and 18 for DMSO controls. • 3. Dispense 100 nL of compound from the dilution plate into reaction plates (Grenier Bio-One, 384-well, Cat#784075). Part B. Reagent Preparation Prepare the following solutions: • 1. 50 mM Tris-HCl, pH 8: Per 1 L of base buffer, combine 1 M Tris-HCl, pH 8 (50 mL) and distilled water (950 mL). • 2. 1× Assay Buffer: Per 10 mL of 1× Assay Buffer, combine 50 mM Tris-HCl, pH 8 (9958 uL), 1 M MgCl2 (20 uL), 2 M DTT (20 uL), and 10% Tween-20 (2 uL) to provide a final concentration of 50 mM Tris-HCl, pH 8, 2 mM MgCl2, 4 mM DTT, 0.002% Tween-20. • 3. 2× Enzyme Solution: Per 10 mL of 2× Enzyme Solution, combine 1× Assay Buffer and PRC2 complex to provide a final enzyme concentration of 10 nM. • 4. SPA Bead Suspension: Per 1 mL of SPA Bead Suspension, combine PS-PEI coated LEADSeeker beads (40 mg) and ddH2O (1 mL) to provide a final concentration of 40 mg/mL. • 5. 2× Substrate Solution: Per 10 mL of 2× Substrate Solution, combine 1× Assay Buffer (9728.55 uL), 800 ug/mL mononucleosomes (125 uL), 1 mM cold SAM (4 uL), and 7.02 uM 3H-SAM (142.45 uL; 0.55 mCi/mL) to provide a final concentration of 5 ug/mL nucleosomes, 0.2 uM cold SAM, and 0.05 uM 3H-SAM. • 6. 2.67× Quench/Bead Mixture: Per 10 mL of 2.67× Quench/Bead Mixture, combine ddH2O (9358 uL), 10 mM cold SAM (267 uL), 40 mg/mL Bead Suspension (375 uL) to provide a final concentration of 100 uM cold SAM and 0.5 mg/mL SPA beads. Part C. Assay Reaction in 384-well Grenier Bio-One Plates Compound Addition • 1. Dispense […] of 100× Compound to test wells (as noted above). • 2. Dispense […] of 100% DMSO to columns 6 & 18 for high and low controls, respectively. Assay • 1. Dispense 5 uL/well of 1× Assay Buffer to column 18 (low control reactions). • 2. Dispense 5 uL/well of 2× Enzyme Solution to columns 1-17, 19-24. • 3. Spin assay plates for ˜1 minute at 500 rpm. • 4. Stack the assay plates, covering the top plate. • 5. Incubate the compound/DMSO with the enzyme for 30 minutes at room temperature. • 6. Dispense 5 uL/well of 2× Substrate Solution to columns 1-24. • 7. Spin assay plates for ˜1 minute at 500 rpm. • 8. Stack the assay plates, covering the top plate. • 9. Incubate the assay plates at room temperature for 1 hour. Quench/Bead Addition • 1. Dispense 5 uL/well of the 3× Quench/Bead Mixture to columns 1-24. • 2. Seal the top of each assay plate with adhesive TopSeal. • 3. Spin assay plates for ˜1 minute at 500 rpm. • 4. Equilibrate the plates for >20 min. Read Plates • 1. Read the assay plates on the Viewlux Plate Reader utilizing the 613 nm emission filter with a 300 s read time. Reagent addition can be done manually or with automated liquid handler. *The final DMSO concentration in this assay is 1%. *The positive control is in column 6; negative control is in column 18. *Final starting concentration of compounds is 100 μM. Part D. Data Analysis
Percent inhibition was calculated relative to the DMSO control for each compound concentration and the resulting values were fit using standard IC50 fitting parameters within the ABASE data fitting software package.

T1 sequence (Q15910 whole entry): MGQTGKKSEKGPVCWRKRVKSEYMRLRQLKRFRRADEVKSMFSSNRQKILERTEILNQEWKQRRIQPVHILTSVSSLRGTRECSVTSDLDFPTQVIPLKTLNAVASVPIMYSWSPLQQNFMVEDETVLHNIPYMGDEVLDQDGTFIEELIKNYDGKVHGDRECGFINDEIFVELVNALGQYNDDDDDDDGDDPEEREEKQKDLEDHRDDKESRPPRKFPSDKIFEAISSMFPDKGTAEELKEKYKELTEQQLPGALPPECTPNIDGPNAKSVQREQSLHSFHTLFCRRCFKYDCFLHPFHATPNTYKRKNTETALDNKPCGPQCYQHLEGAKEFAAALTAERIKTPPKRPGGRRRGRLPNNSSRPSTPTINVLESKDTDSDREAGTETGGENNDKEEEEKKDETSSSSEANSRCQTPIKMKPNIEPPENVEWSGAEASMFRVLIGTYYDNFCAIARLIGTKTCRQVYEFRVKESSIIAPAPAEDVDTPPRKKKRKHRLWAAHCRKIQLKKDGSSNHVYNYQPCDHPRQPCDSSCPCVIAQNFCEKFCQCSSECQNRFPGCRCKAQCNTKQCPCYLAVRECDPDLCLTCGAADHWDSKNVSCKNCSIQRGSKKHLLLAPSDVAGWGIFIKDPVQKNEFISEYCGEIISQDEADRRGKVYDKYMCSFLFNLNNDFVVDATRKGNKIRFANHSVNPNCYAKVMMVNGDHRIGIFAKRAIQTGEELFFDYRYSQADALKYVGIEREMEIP
T1 sequence (O75530 whole entry partner): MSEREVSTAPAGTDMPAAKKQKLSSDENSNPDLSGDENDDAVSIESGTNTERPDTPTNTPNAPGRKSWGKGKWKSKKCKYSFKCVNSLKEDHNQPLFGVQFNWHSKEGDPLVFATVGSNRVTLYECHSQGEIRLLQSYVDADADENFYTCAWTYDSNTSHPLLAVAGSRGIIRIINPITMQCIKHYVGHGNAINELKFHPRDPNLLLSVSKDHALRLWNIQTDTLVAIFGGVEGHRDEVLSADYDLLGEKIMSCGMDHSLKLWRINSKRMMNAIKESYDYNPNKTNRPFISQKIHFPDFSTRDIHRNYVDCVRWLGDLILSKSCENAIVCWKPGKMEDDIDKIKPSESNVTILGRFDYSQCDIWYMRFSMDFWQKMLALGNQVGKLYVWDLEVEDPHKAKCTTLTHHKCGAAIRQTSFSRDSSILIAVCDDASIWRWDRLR
T1 sequence (Q15022 whole entry partner): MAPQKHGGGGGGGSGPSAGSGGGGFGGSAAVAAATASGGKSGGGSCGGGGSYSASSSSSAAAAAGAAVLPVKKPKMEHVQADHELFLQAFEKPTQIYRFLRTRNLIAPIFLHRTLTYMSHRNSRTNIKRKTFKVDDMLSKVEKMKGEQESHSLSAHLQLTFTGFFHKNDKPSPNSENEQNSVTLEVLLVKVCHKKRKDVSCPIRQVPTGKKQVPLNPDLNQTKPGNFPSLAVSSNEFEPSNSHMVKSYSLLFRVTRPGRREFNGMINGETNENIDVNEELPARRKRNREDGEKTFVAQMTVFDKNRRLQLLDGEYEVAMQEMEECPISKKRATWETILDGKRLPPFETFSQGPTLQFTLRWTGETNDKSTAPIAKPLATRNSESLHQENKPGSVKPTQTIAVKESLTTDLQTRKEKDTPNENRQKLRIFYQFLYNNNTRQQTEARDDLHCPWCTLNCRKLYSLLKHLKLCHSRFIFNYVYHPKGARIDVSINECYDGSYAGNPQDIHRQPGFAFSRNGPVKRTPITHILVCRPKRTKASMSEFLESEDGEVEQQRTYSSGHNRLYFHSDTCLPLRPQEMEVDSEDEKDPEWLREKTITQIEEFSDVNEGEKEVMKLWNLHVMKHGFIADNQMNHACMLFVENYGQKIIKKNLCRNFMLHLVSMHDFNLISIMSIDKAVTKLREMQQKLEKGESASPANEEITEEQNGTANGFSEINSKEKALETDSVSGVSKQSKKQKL
T1 sequence (Q09028 whole entry partner): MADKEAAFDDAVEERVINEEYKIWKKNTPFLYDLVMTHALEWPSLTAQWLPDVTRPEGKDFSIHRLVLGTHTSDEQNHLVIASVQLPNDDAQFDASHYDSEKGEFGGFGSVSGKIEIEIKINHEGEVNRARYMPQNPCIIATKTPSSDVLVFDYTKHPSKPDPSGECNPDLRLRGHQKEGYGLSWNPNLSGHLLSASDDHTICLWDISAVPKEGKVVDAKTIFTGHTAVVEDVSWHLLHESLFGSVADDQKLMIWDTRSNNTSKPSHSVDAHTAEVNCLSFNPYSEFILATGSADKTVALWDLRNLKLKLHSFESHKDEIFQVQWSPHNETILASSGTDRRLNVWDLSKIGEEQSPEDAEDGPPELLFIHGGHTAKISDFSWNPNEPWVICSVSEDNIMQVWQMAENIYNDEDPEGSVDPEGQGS
T1 sequence (Q6ZN18 whole entry partner): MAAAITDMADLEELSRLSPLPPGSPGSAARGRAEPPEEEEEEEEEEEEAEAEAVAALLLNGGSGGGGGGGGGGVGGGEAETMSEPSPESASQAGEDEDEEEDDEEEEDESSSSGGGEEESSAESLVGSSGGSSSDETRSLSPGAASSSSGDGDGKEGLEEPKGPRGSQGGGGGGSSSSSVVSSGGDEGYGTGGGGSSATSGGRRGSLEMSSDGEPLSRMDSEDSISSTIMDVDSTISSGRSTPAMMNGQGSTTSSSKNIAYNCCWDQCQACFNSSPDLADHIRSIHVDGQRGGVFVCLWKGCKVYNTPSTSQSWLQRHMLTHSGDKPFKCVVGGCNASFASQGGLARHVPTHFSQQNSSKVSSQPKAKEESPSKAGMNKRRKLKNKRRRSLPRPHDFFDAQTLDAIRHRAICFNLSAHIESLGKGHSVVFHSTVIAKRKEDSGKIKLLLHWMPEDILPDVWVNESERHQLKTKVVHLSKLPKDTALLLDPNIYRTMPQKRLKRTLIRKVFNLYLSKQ

Structure (SMILES)	IC50 [nM]
Cc1cc(C)c(CNC(=O)c2cc(Br)cc3c2cnn3C(C)C)c(=O)[nH]1 [Example 3, 6-Bromo-N-[(4,6-dimethyl-2-oxo-1,2-dihydro-3-pyridinyl)methyl]-1-(1-methylethyl)-1H-indazole-4-carboxamide]	158
Cc1cc(C)c(CNC(=O)c2cc(-c3ccc(N4CCNCC4)nc3)cc3c2cnn3C(C)C)c(=O)[nH]1 [Example 10, N-[(4,6-dimethyl-2-oxo-1,2-dihydro-3-pyridinyl)methyl]-1-(1-methylethyl)-6-[6-(1-piperazinyl)-3-pyridinyl]-1H-indazole-4-carboxamide]	13
Cc1cc(C)c(CNC(=O)c2cc(-c3cccc(CN(C)C)c3)cc3c2cnn3C(C)C)c(=O)[nH]1 [Example 29, 6-{3-[(dimethylamino)methyl]phenyl}-N-[(4,6-dimethyl-2-oxo-1,2-dihydro-3-pyridinyl)methyl]-1-(1-methylethyl)-1H-indazole-4-carboxamide]	40
Cc1cc(Cc2ccccc2)c(CNC(=O)c2cccc3c2cnn3C(C)C)c(=O)[nH]1 [Example 7, 1-(1-methylethyl)-N-{[6-methyl-2-oxo-4-(phenylmethyl)-1,2-dihydro-3-pyridinyl]methyl}-1H-indazole-4-carboxamide]	40
Cc1cc(C)c(CNC(=O)c2cc(-c3ccc(OCCN(C)C)cc3)cc3c2cnn3C(C)C)c(=O)[nH]1 [Example 8, N-((4,6-dimethyl-2-oxo-1,2-dihydropyridin-3-yl)methyl)-6-(4-(2-(dimethylamino)ethoxy)phenyl)-1-isopropyl-1H-indazole-4-carboxamide]	10
Cc1cc(C)c(CNC(=O)c2cc(-c3ccc(N4CCNCC4)cc3)cc3c2cnn3C(C)C)c(=O)[nH]1 [Example 9, N-[(4,6-dimethyl-2-oxo-1,2-dihydro-3-pyridinyl)methyl]-1-(1-methylethyl)-6-[4-(1-piperazinyl)phenyl]-1H-indazole-4-carboxamide]	16
Cc1cc(C(C)C)c(CNC(=O)c2cc(-c3ccc(N4CCNCC4)nc3)cc3c2cnn3C(C)C)c(=O)[nH]1 [Example 12, 1-isopropyl-N-((4-isopropyl-6-methyl-2-oxo-1,2-dihydropyridin-3-yl)methyl)-6-(6-(piperazin-1-yl)pyridin-3-yl)-1H-indazole-4-carboxamide]	4

Now from value to compound:

IC50 [nM]	Structure (SMILES)
25	CCc1cc(C)[nH]c(=O)c1CNC(=O)c1cc(Br)cc2c1cnn2C(C)C [Example 4, 6-bromo-N-((4-ethyl-6-methyl-2-oxo-1,2-dihydropyridin-3-yl)methyl)-1-isopropyl-1H-indazole-4-carboxamide]
2	CCCc1cc(C)[nH]c(=O)c1CNC(=O)c1cc(-c2ccc(N3CCNCC3)nc2)cc2c1cnn2C(C)C [Example 15, 1-(1-methylethyl)-N-[(6-methyl-2-oxo-4-propyl-1,2-dihydro-3-pyridinyl)methyl]-6-[6-(1-piperazinyl)-3-pyridinyl]-1H-indazole-4-carboxamide]
20	CCCc1cc(C)[nH]c(=O)c1CNC(=O)c1cc(-c2ccsc2)cc2c1cnn2C(C)C [Example 31, N-((1,2-dihydro-6-methyl-2-oxo-4-propylpyridin-3-yl)methyl)-1-isopropyl-6-(thiophen-3-yl)-1H-indazole-4-carboxamide]
10	CCCc1cc(C)[nH]c(=O)c1CNC(=O)c1cc(-c2cnc(N)nc2)cc2c1cnn2C(C)C [Example 20, 6-(2-amino-5-pyrimidinyl)-1-(1-methylethyl)-N-[(6-methyl-2-oxo-4-propyl-1,2-dihydro-3-pyridinyl)methyl]-1H-indazole-4-carboxamide]
8	CCCc1cc(C)[nH]c(=O)c1CNC(=O)c1cc(-c2ccc(OC)nc2)cc2c1cnn2C(C)C [Example 23, 1-(1-methylethyl)-N-[(6-methyl-2-oxo-4-propyl-1,2-dihydro-3-pyridinyl)methyl]-6-[6-(methyloxy)-3-pyridinyl]-1H-indazole-4-carboxamide]
5	CCCc1cc(C)[nH]c(=O)c1CNC(=O)c1cc(-c2ccc(N)nc2)cc2c1cnn2C(C)C [Example 21, 6-(6-amino-3-pyridinyl)-1-(1-methylethyl)-N-[(6-methyl-2-oxo-4-propyl-1,2-dihydro-3-pyridinyl)methyl]-1H-indazole-4-carboxamide]
20	CCCc1cc(C)[nH]c(=O)c1CNC(=O)c1cc(-c2cncnc2)cc2c1cnn2C(C)C [Example 22, 1-(1-methylethyl)-N-[(6-methyl-2-oxo-4-propyl-1,2-dihydro-3-pyridinyl)methyl]-6-(5-pyrimidinyl)-1H-indazole-4-carboxamide]
126	Cc1cc(C)c(CNC(=O)c2cc(-c3cnn(C)c3)cc3c2cnn3C(C)C)c(=O)[nH]1 [Example 13, N-((4,6-dimethyl-2-oxo-1,2-dihydropyridin-3-yl)methyl)-1-isopropyl-6-(1-methyl-1H-pyrazol-4-yl)-1H-indazole-4-carboxamide]
